pIC50: −log10 of the molar value.

For this experiment, the target named is human ACC2 (Homo sapiens (Human), UniProt O00763). In words: ACC2 assay, spectrophotometric 384 well assay (NADH-linked kinetic method). Format: biochemical. The conditions noted are these: human ACC2 construct lacking the 128 N-terminal amino acids; coupled lactate dehydrogenase/pyruvate kinase reaction, 340 nm, 25° C. Put shortly: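 N-terminally truncated human ACC2 (lacking 128 residues), expressed in insect cells, was coupled to pyruvate kinase/lactate dehydrogenase, with NADH and acetyl-CoA at 2000 μM and ATP at 500 μM final. The OD340 decrease was followed over 15 min at 25 °C. Slopes were normalised to vehicle and no-acetyl-CoA controls, and IC50 came from four-parameter regression.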
Sequence of human ACC2 (O00763 129-2458): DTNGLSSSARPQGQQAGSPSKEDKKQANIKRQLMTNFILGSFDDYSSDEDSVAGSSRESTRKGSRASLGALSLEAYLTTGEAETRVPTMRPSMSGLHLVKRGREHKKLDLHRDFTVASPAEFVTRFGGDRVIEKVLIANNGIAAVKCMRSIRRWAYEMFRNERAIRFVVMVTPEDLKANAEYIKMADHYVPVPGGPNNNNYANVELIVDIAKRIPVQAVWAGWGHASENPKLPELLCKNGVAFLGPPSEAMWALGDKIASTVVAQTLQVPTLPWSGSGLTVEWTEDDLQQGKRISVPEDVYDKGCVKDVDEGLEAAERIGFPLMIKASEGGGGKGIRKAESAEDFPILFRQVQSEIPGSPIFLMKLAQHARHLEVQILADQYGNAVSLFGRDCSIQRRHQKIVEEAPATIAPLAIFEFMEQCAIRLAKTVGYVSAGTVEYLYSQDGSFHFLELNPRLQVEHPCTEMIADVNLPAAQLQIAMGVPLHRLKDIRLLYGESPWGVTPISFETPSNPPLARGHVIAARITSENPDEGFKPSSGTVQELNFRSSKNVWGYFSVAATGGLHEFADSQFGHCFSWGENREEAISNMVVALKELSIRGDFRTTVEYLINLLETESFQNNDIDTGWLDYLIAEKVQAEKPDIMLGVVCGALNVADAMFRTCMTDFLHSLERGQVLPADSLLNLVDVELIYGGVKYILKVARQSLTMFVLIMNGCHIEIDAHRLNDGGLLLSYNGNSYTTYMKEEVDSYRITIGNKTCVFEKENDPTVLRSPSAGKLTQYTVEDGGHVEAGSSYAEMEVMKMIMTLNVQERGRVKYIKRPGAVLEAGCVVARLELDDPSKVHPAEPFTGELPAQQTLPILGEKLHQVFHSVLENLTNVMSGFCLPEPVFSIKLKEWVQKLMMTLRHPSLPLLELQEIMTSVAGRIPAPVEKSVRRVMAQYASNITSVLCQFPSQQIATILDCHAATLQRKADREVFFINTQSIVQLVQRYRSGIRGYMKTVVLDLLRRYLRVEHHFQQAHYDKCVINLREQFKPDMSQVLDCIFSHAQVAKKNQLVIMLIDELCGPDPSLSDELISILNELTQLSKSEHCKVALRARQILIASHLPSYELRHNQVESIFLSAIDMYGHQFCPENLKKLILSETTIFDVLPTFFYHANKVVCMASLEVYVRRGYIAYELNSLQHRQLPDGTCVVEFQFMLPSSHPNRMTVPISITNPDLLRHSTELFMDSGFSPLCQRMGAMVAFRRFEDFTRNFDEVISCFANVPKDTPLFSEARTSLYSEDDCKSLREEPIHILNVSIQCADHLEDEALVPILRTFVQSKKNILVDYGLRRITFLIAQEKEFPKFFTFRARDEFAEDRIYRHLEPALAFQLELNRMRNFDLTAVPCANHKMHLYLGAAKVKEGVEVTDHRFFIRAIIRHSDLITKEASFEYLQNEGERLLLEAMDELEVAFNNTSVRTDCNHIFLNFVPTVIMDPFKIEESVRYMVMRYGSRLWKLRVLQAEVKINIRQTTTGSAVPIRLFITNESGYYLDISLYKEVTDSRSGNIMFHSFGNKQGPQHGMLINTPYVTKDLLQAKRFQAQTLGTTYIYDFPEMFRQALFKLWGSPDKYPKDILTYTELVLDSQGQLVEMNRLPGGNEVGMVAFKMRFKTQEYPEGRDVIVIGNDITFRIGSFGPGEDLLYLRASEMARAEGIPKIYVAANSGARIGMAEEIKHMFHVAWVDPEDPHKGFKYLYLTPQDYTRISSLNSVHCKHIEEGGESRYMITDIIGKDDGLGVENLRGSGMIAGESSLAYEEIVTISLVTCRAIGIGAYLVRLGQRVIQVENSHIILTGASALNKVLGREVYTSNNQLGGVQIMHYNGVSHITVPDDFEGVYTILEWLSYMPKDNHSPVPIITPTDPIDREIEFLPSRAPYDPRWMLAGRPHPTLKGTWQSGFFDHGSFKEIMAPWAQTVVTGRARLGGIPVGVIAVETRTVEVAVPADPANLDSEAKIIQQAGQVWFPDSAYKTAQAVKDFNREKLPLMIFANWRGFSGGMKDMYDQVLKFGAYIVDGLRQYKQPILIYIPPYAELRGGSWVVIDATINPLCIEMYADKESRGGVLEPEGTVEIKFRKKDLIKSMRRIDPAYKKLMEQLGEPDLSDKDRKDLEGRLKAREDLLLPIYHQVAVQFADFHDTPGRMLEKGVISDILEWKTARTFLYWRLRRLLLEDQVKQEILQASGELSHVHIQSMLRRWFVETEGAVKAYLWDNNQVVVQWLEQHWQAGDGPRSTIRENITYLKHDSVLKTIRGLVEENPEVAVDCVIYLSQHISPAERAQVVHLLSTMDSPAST
The pIC50 is −log10 of the IC50, conventionally taken in molar units. Higher therefore signals a low IC50. In turn, `CC(=O)N[C@@H](C)c1ccc(O[C@@H]2CCN(c3ccnc(OCC(C)C)c3F)C2)cc1` [Example 9.50] gave a negative-log IC50 (pIC50) of 6.96.

`CC(C)Oc1cc(N2CCC(Oc3ccc([C@H](C)NC(=O)c4cn[nH]c4)cc3)C2)ccn1` (stereo partly drawn) [Example 2.8] had a pIC50 of 7.19. `CC(=O)N[C@@H](C)c1ccc(O[C@@H]2CCN(c3nc(N4CCCCC4)c(F)cc3F)C2)cc1` [Example 10.6] had a negative-log IC50 (pIC50) of 6.08. Then `CSc1ccc(N2CCC(Oc3ccc([C@H](C)NC(C)=O)cc3)C2)nc1` (stereo partly drawn) [Example 1.69], with 6.41; and `CC(=O)N[C@@H](C)c1ccc(O[C@@H]2CCN(c3ccnc(NCC(C)(C)O)c3F)C2)cc1` [Example 10.53], with 6.67; and `CCCOc1nccc(N2CC[C@@H](Oc3ccc([C@H](C)NC(C)=O)cc3)C2)c1OC` [Example 1.121], with 7.39. `COC(=O)N[C@@H](C)c1ccc(OC2CCN(c3ccnc(N4CCC(F)(F)C4)c3F)C2)cc1` (stereo partly drawn) [Example 4.7] had a pIC50 of 6.87. `CCOc1nccc(N2CC[C@@H](Oc3ccc([C@H](C)NC(C)=O)cc3)C2)c1Cl` [Example 9.76] gave a pIC50 of 6.94.

Regarding `CC(=O)N[C@@H](C)c1ccc(OC2CCN(c3cc(OC(C)C)ncc3F)C2)cc1` (stereo partly drawn) [Example 1.74], the pIC50 was 7.00. With `C[C@H](NC(=O)c1cnn(C)c1N)c1ccc(OC2CCN(c3ccnc(OCC(F)F)c3)C2)cc1` (stereo partly drawn) [Example 2.112], the negative-log IC50 (pIC50) was 6.53.

Molecule `CC(=O)N[C@@H](C)c1ccc(OC2CCN(c3ccc(OC4CCC4)cn3)C2)cc1` (stereo partly drawn) [Example 1.26] showed a pIC50 of 6.94. In the case of `CC(=O)N[C@@H](C)c1ccc(O[C@@H]2CCN(c3ccnc(N4CC(F)(F)C4)c3F)C2)cc1` [Example 1.105], the pIC50 is 7.23. To `CC(=O)N[C@@H](C)c1ccc(O[C@@H]2CCN(c3ccnc(OCc4cccc(F)c4)c3)C2)cc1` [Example 9.9] belongs 6.85; to `Cc1cccc(N2CC[C@@H](Oc3ccc([C@H](C)NC(=O)c4cncs4)cc3)C2)n1` [Example 1.85], 6.97; to `CC(=O)N[C@@H](C)c1ccc(OC2CCN(c3ccc(F)c(C)n3)C2)cc1` (stereo partly drawn) [Example 1.65], 6.97. To `CC(=O)Nc1nc(C)c(C(=O)N[C@@H](C)c2ccc(O[C@@H]3CCN(c4ccnc(OC(C)C)c4)C3)cc2)s1` [Example 1.49] belongs 6.75; to `CC(=O)N[C@@H](C)c1ccc(O[C@@H]2CCN(c3cccc(N4CCCC4)n3)C2)cc1` [Example 10.3], 6.82. `C[C@H](NC(=O)c1cnco1)c1ccc(OC2CCN(c3ccnc(OCC4CC4)c3)C2)cc1` (stereo partly drawn) [Example 2.67] had a pIC50 of 7.34.

For the molecule `C[C@H](NC(=O)C(F)F)c1ccc(OC2CCN(c3cccc(C(F)(F)F)n3)C2)cc1` (stereo partly drawn) [Example 2.32], the negative-log IC50 (pIC50) was 6.92. Then `CC(=O)N[C@@H](C)c1ccc(OC2CCN(c3ncc(OCC4CC4)cc3F)C2)cc1` (stereo partly drawn) [Example 1.7], with 6.86. Then `C[C@H](NC(=O)N1CCOCC1)c1ccc(OC2CCN(c3ccnc(OCC(F)F)c3)C2)cc1` (stereo partly drawn) [Example 3.13], with 6.30. Then `C[C@H](NC(=O)c1cnco1)c1ccc(OC2CCN(c3ccc(OC[C@H]4CC4(F)F)cn3)C2)cc1` (stereo partly drawn) [Example 2.92], with 6.96; and `CC(=O)Nc1nc(C)c(C(=O)N[C@@H](C)c2ccc(O[C@@H]3CCN(c4cccc(C(F)(F)F)n4)C3)cc2)s1` [Example 1.45], with 7.19.

Take `CCNC(=O)N[C@@H](C)c1ccc(OC2CCN(c3ccc(OCC4CC4(F)F)cn3)C2)cc1` (stereo partly drawn) [Example 3.3]: the pIC50 is 6.82. Turning to `C[C@H](NC(=O)C1CC1)c1ccc(OC2CCN(c3ccc(OC[C@H]4CC4(F)F)cn3)C2)cc1` (stereo partly drawn) [Example 2.94], the negative-log IC50 (pIC50) was 7.08. Molecule `CCN(C)C(=O)N[C@@H](C)c1ccc(OC2CCN(c3ccnc(OCC4CC4)c3)C2)cc1` (stereo partly drawn) [Example 3.6] had a pIC50 of 6.96. Consider `CC#CCOc1cc(N2CC[C@@H](Oc3ccc([C@H](C)NC(C)=O)cc3)C2)ccn1` [Example 9.8], for which the negative-log IC50 (pIC50) was 6.57.

`C[C@H](NC(=O)c1cnn(C)c1Cl)c1ccc(OC2CCN(c3ccnc(OCC(F)F)c3)C2)cc1` (stereo partly drawn) [Example 2.114] had a negative-log IC50 (pIC50) of 6.21. Then `CC(=O)N[C@@H](C)c1ccc(O[C@@H]2CCN(c3ccnc(OCC4CC(F)(F)C4)c3)C2)cc1` [Example 9.61], with 7.19; and `CC(=O)N[C@@H](C)c1ccc(O[C@@H]2CCN(c3ccnc(OCC4CC4)c3F)C2)cc1` [Example 9.51], with 7.38; and `COc1c(N2CC[C@@H](Oc3ccc([C@H](C)NC(C)=O)cc3)C2)ccnc1N(C)C` [Example 1.137], with 6.20. To `CC(C)Oc1cc(N2CCC(Oc3ccc([C@H](C)NC(=O)C4(C(F)(F)F)CC4)cc3)C2)ccn1` (stereo partly drawn) [Example 2.17] belongs 6.22.

Take `COc1cc(OCC2CC2(F)F)cnc1N1CCC(Oc2ccc([C@H](C)NC(C)=O)cc2)C1` (stereo partly drawn) [Example 1.81]: the pIC50 was 6.37. `CCC(=O)N[C@@H](C)c1ccc(OC2CCN(c3ccnc(N4CCC(F)(F)C4)c3F)C2)cc1` (stereo partly drawn) [Example 5.3] showed a negative logarithm of the IC50 (pIC50) of 7.47. Then `CC(=O)N[C@@H](C)c1ccc(O[C@@H]2CCN(c3ccnc(OC4CC=CC4)c3)C2)cc1` [Example 9.11], with 7.17; and `CC(=O)N[C@@H](C)c1ccc(OC2CCN(c3cc(OCC4CC4)ncc3C)C2)cc1` (stereo partly drawn) [Example 1.25], with 6.64; and `CC(=O)N[C@@H](C)c1ccc(OC2CCN(c3ccc(OC4CCCC4)cn3)C2)cc1` (stereo partly drawn) [Example 1.27], with 7.15. Then `CC(=O)N[C@@H](C)c1ccc(OC2CCN(c3cccc(C4CC4)n3)C2)cc1` (stereo partly drawn) [Example 1.38], with 7.02.

As for `CC(C)Oc1cc(N2CCC(Oc3ccc([C@H](C)NC(=O)c4cnn(C)c4)cc3)C2)ccn1` (stereo partly drawn) [Example 2.4], the negative-log IC50 (pIC50) is 6.84. Then `Cc1c(N2CC[C@@H](Oc3ccc([C@H](C)NC(=O)/C=C/C4CC4)cc3)C2)ccnc1OCC1CC1` [Example 9.59], with 6.63; and `CCCOc1nccc(N2CC[C@@H](Oc3ccc([C@H](C)NC(C)=O)cc3)C2)c1F` [Example 9.53], with 7.40.

`CC(=O)N[C@@H](C)c1ccc(O[C@@H]2CCN(c3ccnc(N4CCC4)c3Cl)C2)cc1` [Example 1.131] had a pIC50 of 7.12. The molecule `CNC(=O)N[C@@H](C)c1ccc(OC2CCN(c3ccnc(OCC(F)F)c3)C2)cc1` (stereo partly drawn) [Example 3.14] gave a negative logarithm of the IC50 (pIC50) of 6.62. `C[C@H](NC(=O)C(C)(F)F)c1ccc(OC2CCN(c3ccc(OCC4CC4(F)F)cn3)C2)cc1` (stereo partly drawn) [Example 2.35] had a pIC50 of 6.56. To `C[C@H](NC(=O)c1ccno1)c1ccc(OC2CCN(c3ccnc(OCC(F)F)c3)C2)cc1` (stereo partly drawn) [Example 2.107] belongs 6.41; to `COc1cnc(N2CC[C@@H](Oc3ccc([C@H](C)NC(C)=O)cc3)C2)c(Cl)c1` [Example 8.10], 6.16; to `CC(=O)N[C@@H](C)c1ccc(O[C@@H]2CCN(c3ccnc(OCC(C)(F)F)c3Cl)C2)cc1` [Example 9.77], 7.23.

In the case of `CC(=O)N[C@@H](C)c1ccc(O[C@@H]2CCN(c3ccnc(OCC4CCCO4)c3)C2)cc1` (stereo partly drawn) [Example 9.48], the pIC50 is 6.31. Then `CCNc1nccc(N2CC[C@@H](Oc3ccc([C@H](C)NC(C)=O)cc3)C2)c1F` [Example 1.115], with 6.59; and `CC(=O)N[C@@H](C)c1ccc(O[C@@H]2CCN(c3ccnc(OCC(F)F)c3Cl)C2)cc1` [Example 9.72], with 7.10; and `C[C@H](NC(=O)N(C)C)c1ccc(OC2CCN(c3cccc(C(F)(F)F)n3)C2)cc1` (stereo partly drawn) [Example 5.2], with 7.05. To `C[C@H](NC(=O)N(C)C)c1ccc(OC2CCN(c3ccc(F)c(C(F)(F)F)n3)C2)cc1` (stereo partly drawn) [Example 1.58] belongs 7.26. Take `CC(=O)N[C@@H](C)c1ccc(O[C@@H]2CCN(c3ccc(OC[C@H]4CC4(F)F)cn3)C2)cc1` [Example 1.118]: the pIC50 was 7.41. `Cc1nnsc1C(=O)N[C@@H](C)c1ccc(OC2CCN(c3cccc(C(F)(F)F)n3)C2)cc1` (stereo partly drawn) [Example 2.53] had a pIC50 of 6.50. To `CC(=O)NC1CCN(C(=O)N[C@@H](C)c2ccc(OC3CCN(c4ccc(OCC5CC5(F)F)cn4)C3)cc2)CC1` (stereo partly drawn) [Example 3.11] belongs 6.50. Then `CC(C)Oc1cc(N2CCC(Oc3ccc([C@H](C)NC(=O)C4(C)CC4)cc3)C2)ccn1` (stereo partly drawn) [Example 2.21], with 6.41; and `CNC(=O)c1cccc(C(=O)N[C@@H](C)c2ccc(OC3CCN(c4ccc(OCC5CC5)cc4)C3)cc2)n1` (stereo partly drawn) [Example 2.2], with 6.15. Then `CCN(C)c1ccnc(N2CC[C@@H](Oc3ccc([C@H](C)NC(C)=O)cc3)C2)c1F` [Example 1.97], with 6.01; and `CC(=O)N[C@@H](C)c1ccc(O[C@@H]2CCN(c3cccc(N4CCCOCC4)n3)C2)cc1` [Example 10.40], with 6.28. Regarding `CC(C)Oc1cc(N2CCC(Oc3ccc([C@H](C)NC(=O)c4ccon4)cc3)C2)ccn1` (stereo partly drawn) [Example 2.28], the pIC50 is 6.29. Then `CC(C)Oc1cc(N2CCC(Oc3ccc([C@H](C)NC(=O)C4(C#N)CC4)cc3)C2)ccn1` (stereo partly drawn) [Example 2.27], with 6.24; and `CC(=O)N[C@@H](C)c1ccc(O[C@@H]2CCN(c3ccnc(N4CCC4)c3C)C2)cc1` [Example 1.126], with 6.22. Then `COC(C)(C)COc1nccc(N2CC[C@@H](Oc3ccc([C@H](C)NC(C)=O)cc3)C2)c1Cl` [Example 9.79], with 6.88.

Consider `CC(=O)N[C@@H](C)c1ccc(O[C@@H]2CCN(c3cccc(N(C)CC(C)O)n3)C2)cc1` (stereo partly drawn) [Example 10.35], for which the pIC50 is 6.07. The molecule `CC(=O)N[C@@H](C)c1ccc(O[C@@H]2CCN(c3cc(NCC4CC4)ncc3F)C2)cc1` [Example 10.26] had a negative logarithm of the IC50 (pIC50) of 6.12. To `CC(C#N)C(=O)N[C@@H](C)c1ccc(OC2CCN(c3ccnc(OCC4CC4)c3)C2)cc1` (stereo partly drawn) [Example 2.83] belongs 6.68.

These data come from US8877741B2, “Pyrrolidine derivatives, pharmaceutical compositions and uses thereof” (Boehringer Ingelheim International GmbH, priority 2013, dated 2014).
